Assay results as given in PubChem BioAssay AID2060902 (Molecular Pharmacology Branch, DTP, NCI, 2025).

Tested on: 485368-065-R3-J5-PDC spheroids with HUVEC/MSC, viability
Test: Anticancer human tumor 485368-065-R3-J5-PDC patient-derived pancreatic carcinoma cell line growth inhibition [RAS]
Details: for IC50: curve of first compound; for viability, T/C: stronger effect = lower value
Outline: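 Tumour cells grown as complex spheroids with HUVEC endothelial cells and mesenchymal stem cells, treated with RAS pathway inhibitor combinations. Each agent spans half-log steps from near clinical Cmax, or 10 microM where Cmax is unknown.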

[1] = second compound 0.00316 µM, first compound 0.00316 µM
[2] = second compound 0.00316 µM, first compound 0.01 µM
[3] = second compound 0.00316 µM, first compound 0.0316 µM
[4] = second compound 0.00316 µM, first compound 0.1 µM
[5] = second compound 0.00316 µM, first compound 0.316 µM
[6] = second compound 0.00316 µM, first compound 1 µM
[7] = second compound 0.01 µM, first compound 0.00316 µM
[8] = second compound 0.01 µM, first compound 0.01 µM
[9] = second compound 0.01 µM, first compound 0.0316 µM
[10] = second compound 0.01 µM, first compound 0.1 µM
[11] = second compound 0.01 µM, first compound 0.316 µM
[12] = second compound 0.01 µM, first compound 1 µM
[13] = second compound 0.0316 µM, first compound 0.00316 µM
[14] = second compound 0.0316 µM, first compound 0.01 µM
[15] = second compound 0.0316 µM, first compound 0.0316 µM
[16] = second compound 0.0316 µM, first compound 0.1 µM
[17] = second compound 0.0316 µM, first compound 0.316 µM
[18] = second compound 0.0316 µM, first compound 1 µM
[19] = second compound 0.1 µM, first compound 0.00316 µM
[20] = second compound 0.1 µM, first compound 0.01 µM
[21] = second compound 0.1 µM, first compound 0.0316 µM
[22] = second compound 0.1 µM, first compound 0.1 µM
[23] = second compound 0.1 µM, first compound 0.316 µM
[24] = second compound 0.1 µM, first compound 1 µM
[25] = second compound 0.316 µM, first compound 0.00316 µM
[26] = second compound 0.316 µM, first compound 0.01 µM
[27] = second compound 0.316 µM, first compound 0.0316 µM
[28] = second compound 0.316 µM, first compound 0.1 µM
[29] = second compound 0.316 µM, first compound 0.316 µM
[30] = second compound 0.316 µM, first compound 1 µM
[31] = second compound 1 µM, first compound 0.00316 µM
[32] = second compound 1 µM, first compound 0.01 µM
[33] = second compound 1 µM, first compound 0.0316 µM
[34] = second compound 1 µM, first compound 0.1 µM
[35] = second compound 1 µM, first compound 0.316 µM
[36] = second compound 1 µM, first compound 1 µM
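Further: spheroids exposed to agents for seven days before readout.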

C=CC(=O)Nc1cc(Nc2nccc(-c3cn(C)c4ccccc34)n2)c(OC)cc1N(C)CCN(C)C + C=CC(=O)N1CCN(c2nc(OCC3CCCN3C)nc3c(F)c(-c4nc(N)cc(C)c4C(F)(F)F)c(Cl)cc23)C(C)C1
IC50 (second compound 0.00316 µM): > 1000 nM
IC50 (second compound 0.01 µM): > 1000 nM
IC50 (second compound 0.0316 µM): > 1000 nM
IC50 (second compound 0.1 µM): > 1000 nM
IC50 (second compound 0.316 µM): > 1000 nM
IC50 (second compound 1 µM): > 1000 nM
viability, T/C [1]: 103%
viability, T/C [2]: 89.9%
viability, T/C [3]: 104%
viability, T/C [4]: 104%
viability, T/C [5]: 108%
viability, T/C [6]: 97.1%
viability, T/C [7]: 105%
viability, T/C [8]: 96.9%
viability, T/C [9]: 94.8%
viability, T/C [10]: 100%
viability, T/C [11]: 115%
viability, T/C [12]: 89.5%
viability, T/C [13]: 100%
viability, T/C [14]: 98.9%
viability, T/C [15]: 99.4%
viability, T/C [16]: 109%
viability, T/C [17]: 108%
viability, T/C [18]: 94.1%
viability, T/C [19]: 99.8%
viability, T/C [20]: 98.6%
viability, T/C [21]: 99.7%
viability, T/C [22]: 103%
viability, T/C [23]: 100%
viability, T/C [24]: 85%
viability, T/C [25]: 98%
viability, T/C [26]: 93.1%
viability, T/C [27]: 111%
viability, T/C [28]: 119%
viability, T/C [29]: 117%
viability, T/C [30]: 87.8%
viability, T/C [31]: 106%
viability, T/C [32]: 96.8%
viability, T/C [33]: 110%
viability, T/C [34]: 112%
viability, T/C [35]: 106%
viability, T/C [36]: 87.8%

CC(Nc1ccc2c(c1)OCCn1cc(N3C(=O)OCC3C(F)F)nc1-2)C(N)=O (stereo unspecified) + C=CC(=O)N1CCN(c2nc(OCC3CCCN3C)nc3c(F)c(-c4nc(N)cc(C)c4C(F)(F)F)c(Cl)cc23)C(C)C1
IC50 (second compound 0.00316 µM): > 10000 nM
IC50 (second compound 0.01 µM): > 10000 nM
IC50 (second compound 0.0316 µM): > 10000 nM
IC50 (second compound 0.1 µM): 9800 nM
IC50 (second compound 0.316 µM): > 10000 nM
IC50 (second compound 1 µM): 4990 nM
viability, T/C [3]: 103%
viability, T/C [4]: 79.8%
viability, T/C [5]: 88.5%
viability, T/C [6]: 75.4%
viability, T/C (second compound 0.00316 µM, first compound 3.16 µM): 75.6%
viability, T/C (second compound 0.00316 µM, first compound 10 µM): 51.3%
viability, T/C [9]: 92.4%
viability, T/C [10]: 86.9%
viability, T/C [11]: 91.8%
viability, T/C [12]: 72.8%
viability, T/C (second compound 0.01 µM, first compound 3.16 µM): 76.5%
viability, T/C (second compound 0.01 µM, first compound 10 µM): 49.5%
viability, T/C [15]: 87.1%
viability, T/C [16]: 72.3%
viability, T/C [17]: 88%
viability, T/C [18]: 85.7%
viability, T/C (second compound 0.0316 µM, first compound 3.16 µM): 76.4%
viability, T/C (second compound 0.0316 µM, first compound 10 µM): 52.1%
viability, T/C [21]: 100%
viability, T/C [22]: 97.6%
viability, T/C [23]: 102%
viability, T/C [24]: 82%
viability, T/C (second compound 0.1 µM, first compound 3.16 µM): 73.8%
viability, T/C (second compound 0.1 µM, first compound 10 µM): 49.3%
viability, T/C [27]: 98.5%
viability, T/C [28]: 87.1%
viability, T/C [29]: 78.4%
viability, T/C [30]: 70.5%
viability, T/C (second compound 0.316 µM, first compound 3.16 µM): 82.8%
viability, T/C (second compound 0.316 µM, first compound 10 µM): 57.1%
viability, T/C [33]: 101%
viability, T/C [34]: 90.5%
viability, T/C [35]: 87.5%
viability, T/C [36]: 84.7%
viability, T/C (second compound 1 µM, first compound 3.16 µM): 55%
viability, T/C (second compound 1 µM, first compound 10 µM): 41.3%

O=C(c1ccc(F)c(F)c1Nc1ccc(I)cc1F)N1CC(O)([C@@H]2CCCCN2)C1 + C=CC(=O)N1CCN(c2nc(OCC3CCCN3C)nc3c(F)c(-c4nc(N)cc(C)c4C(F)(F)F)c(Cl)cc23)C(C)C1
IC50 (second compound 0.00316 µM): 28.6 nM
IC50 (second compound 0.01 µM): 27.8 nM
IC50 (second compound 0.0316 µM): 31.1 nM
IC50 (second compound 0.1 µM): 29.1 nM
IC50 (second compound 0.316 µM): 34.4 nM
IC50 (second compound 1 µM): 49.6 nM
viability, T/C [1]: 106%
viability, T/C [2]: 60.2%
viability, T/C [3]: 56.9%
viability, T/C [4]: 30.1%
viability, T/C [5]: 24.3%
viability, T/C [6]: 8.78%
viability, T/C [7]: 99.8%
viability, T/C [8]: 71.6%
viability, T/C [9]: 44.8%
viability, T/C [10]: 29.5%
viability, T/C [11]: 26.1%
viability, T/C [12]: 8.23%
viability, T/C [13]: 90.9%
viability, T/C [14]: 73.1%
viability, T/C [15]: 47.8%
viability, T/C [16]: 29.8%
viability, T/C [17]: 23.1%
viability, T/C [18]: 7.64%
viability, T/C [19]: 86%
viability, T/C [20]: 72.3%
viability, T/C [21]: 44.6%
viability, T/C [22]: 30.4%
viability, T/C [23]: 25.3%
viability, T/C [24]: 8.95%
viability, T/C [25]: 85.8%
viability, T/C [26]: 68.6%
viability, T/C [27]: 50.5%
viability, T/C [28]: 33.1%
viability, T/C [29]: 26.8%
viability, T/C [30]: 8.9%
viability, T/C [31]: 91.6%
viability, T/C [32]: 65.5%
viability, T/C [33]: 52.7%
viability, T/C [34]: 47.3%
viability, T/C [35]: 27.6%
viability, T/C [36]: 11.4%
